{
  "source": "paper PMC2225439",
  "about": "“Amyloid as a Depot for the Formulation of Long-Acting Drugs” (PLoS Biology, 2008)",
  "key": {"histamine release": {"tested_on": "histamine release", "conditions": "cited from earlier work"}, "[1]": {"tested_on": "mouse embryo fibroblast cells", "experiment": "LDH release assay", "type": "cell-based", "conditions": "1 μM Aβ(1–40); triplicate", "source_text": "Since amyloid fibrils can be toxic to cells and are associated with several neurological diseases, it is a concern whether or not amyloid fibrils of GnRH analogs are able to generate a toxic response as well. To measure the potential toxicity of GnRH analogs, we used the lactate dehydrogenase (LDH) release assay for cell killing. The LDH release assay is a widely used assay to determine the cytotoxicity of chemicals or environmental toxic factors. LDH is a soluble cytosolic enzyme that is released into the culture medium following the loss of membrane integrity. For the LDH assay, we used mouse embryo fibroblast cells and aged peptide samples at 60 μM in 5% D-mannitol.\nFor the LDH assay, we used mouse embryo fibroblast cells and peptide fibrils at 60 μM final concentration in 5% D-mannitol. For the buffer control, we used 5% D-mannitol in water. We also used 1 μM Aβ(1–40) and a cell lysate to compare our data. The assay was done using a kit (Sigma) as described by the manufacturer. The assays were done in triplicate and the data presented as the standard error of the mean."}},
  "note": "Where a SMILES comes first, the peptide text is derived from it. [ ]: non-standard residue; d: D form. The star is where a group is joined. dPhe(4-NHCONH2) = NC(=O)Nc1ccc(C[C@@H](N)C(=O)O)cc1; Dihydroorotyl(S) = O=C1C[C@@H](C(=O)*)NC(=O)N1; dPhe(4-Cl) = N[C@H](Cc1ccc(Cl)cc1)C(=O)O; Phe(4-NH2) = Nc1ccc(C[C@H](N)C(=O)O)cc1; d2Nal = N[C@H](Cc1ccc2ccccc2c1)C(=O)O; Lys(iPr) = CC(C)NCCCC[C@H](N)C(=O)O; d3Pal = N[C@H](Cc1cccnc1)C(=O)O",
  "data": [
    {"compound": "CC(=O)N[C@H](Cc1ccc2ccccc2c1)C(=O)N[C@H](Cc1ccc(Cl)cc1)C(=O)N[C@H](Cc1cccnc1)C(=O)N[C@@H](CO)C(=O)N[C@@H](Cc1ccc(NC(=O)[C@@H]2CC(=O)NC(=O)N2)cc1)C(=O)N[C@H](Cc1ccc(NC(N)=O)cc1)C(=O)N[C@@H](CC(C)C)C(=O)N[C@@H](CCCCNC(C)C)C(=O)N1CCC[C@H]1C(=O)N[C@H](C)C(N)=O", "note": "[L13, Ac-DNal-DCpa-DPal-Ser-Aph(LHor)-DAph(Cbm)-Leu-ILys-Pro-DAla-NH2] (Ac-[d2Nal][dPhe(4-Cl)][d3Pal]S[Phe(4-NH2)](Dihydroorotyl(S))[dPhe(4-NHCONH2)]L[Lys(iPr)]P[dA]-NH2)", "values": [
      {"measurement": "safety margin with regard to histamine release", "setting": "histamine release", "result": "good safety margin"}
    ]},
    {"compound": "Aβ(1–40): amyloid peptide Aβ(1–40), used as positive control in the LDH release assay", "values": [
      {"measurement": "toxicity (LDH release)", "setting": "[1]", "result": "neither the peptide analog samples nor Aβ(1–40) generated toxicity"}
    ]}
  ]
}
